Experimental data published in publication PMC5632197 (Bioorganic & medicinal chemistry, 2017).
Entries after “also recorded” stand apart in the source; their conditions may differ. Like-named read-outs stand apart in the source and are kept apart here.

How the values were obtained:
[1] = biological target: T1, T. brucei AdoMetDC/prozyme (Trypanosoma brucei brucei, UniProt P50244); experiment: T. brucei AdoMetDC enzyme activity assay; format: biochemical; conditions: for fold less active against AdoMetDC compared to parent: compared to 1 (27 versus 11a), IC50 with PI
T1 sequence (P50244 86-370 limits assumed): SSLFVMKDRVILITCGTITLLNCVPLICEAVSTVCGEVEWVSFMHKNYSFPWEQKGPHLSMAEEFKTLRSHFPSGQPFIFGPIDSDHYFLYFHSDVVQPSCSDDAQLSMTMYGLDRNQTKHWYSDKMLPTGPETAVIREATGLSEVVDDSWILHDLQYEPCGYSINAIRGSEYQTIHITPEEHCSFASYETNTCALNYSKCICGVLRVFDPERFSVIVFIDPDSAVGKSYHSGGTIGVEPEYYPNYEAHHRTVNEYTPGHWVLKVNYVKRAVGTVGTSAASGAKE

[2] = test system: T. brucei Lister 427 bloodstream-form cells; experiment: T. brucei cell growth inhibition assay; format: cell-based, Trypanosoma brucei brucei
[3] = mice; cited from earlier work
T. brucei = conditions: 7-day 50 mg/kg/day intraperitoneal dosage; cited from earlier work
CNS stage of HAT = conditions: cited from earlier work
[4] = AdoMetDC IC50 with PI, with 30 min pre-incubation, triplicate
[5] = AdoMetDC IC50 without PI, without pre-incubation, triplicate

Row | Structure (SMILES) | IC50 [1, 4] [µM] | IC50 [1, 5] [µM] | other results
1 | CNc1ncnc2c1ncn2[C@@H]1O[C@H](CN(C)C/C=C\CN)[C@@H](O)[C@H]1O [Compound 28a] | – | – | fold less active against AdoMetDC compared to parent [1]: 3- to 4 fold
2 | CN(C/C=C\CN)C[C@H]1O[C@@H](n2cnc3c(N(C)C)ncnc32)[C@H](O)[C@@H]1O [Compound 28b] | – | – | fold less active against AdoMetDC compared to parent [1]: ~ 20 fold
3 | CCCC(=O)NC/C=C\CN(C)C[C@H]1O[C@@H](n2cnc3c(N)ncnc32)[C@H](O)[C@@H]1O [Compound 5c] | > 50 | > 50 | –
4 | CC(C)Nc1ncnc2c1ncn2[C@@H]1O[C@H](CN(C)C/C=C\CN)[C@@H](O)[C@H]1O [Compound 28c] | – | – | fold less active against AdoMetDC compared to parent [1]: 3- to 4 fold
5 | CNc1ncnc2c1ncn2[C@@H]1O[C@H](CN(C)C/C=C\CN)[C@H]2OC(C)(C)O[C@H]21 [Compound 27] | – | > 50 | fold less active against AdoMetDC compared to parent [1]: 3- to 4 fold
6 | CN(C/C=C\CN)C[C@H]1O[C@@H](n2cnc3c(N)ncnc32)[C@@H]2OC(C)(C)O[C@@H]21 [Compound 11a] | – | – | fold less active against AdoMetDC compared to parent [1]: ~ 50 fold; fold reduced activity in T. b. brucei cell growth assay compared to 1 ([2]; EC50 compared to parent MDL 73811 (1)): ~ 50 fold
7 | CN(C/C=C\CN)C[C@H]1O[C@@H](n2cnc3cncnc32)[C@@H]2OC(C)(C)O[C@@H]21 [Compound 30] | > 50 | > 50 | –
8 | Cc1nc2c(N)ncnc2n1[C@@H]1O[C@H](CN(C)C/C=C\CNC(=O)OC(C)C)[C@@H](O)[C@H]1O [Compound 3c] | > 50 | > 50 | –
9 | CCCCCCCCC(=O)Nc1ncnc2c1ncn2[C@@H]1O[C@H](CN(C)C/C=C\CN)[C@H]2OC(C)(C)O[C@H]21 [Compound 31] | – | – | fold more potent inhibition of AdoMetDC enzymatic activity than 11a ([1]; compared to comparator 11a): 3.5 fold; fold more potent inhibition of T.b. brucei proliferation than 11a ([2]; compared to comparator 11a): 2.6 fold
10 | CN(CC=CCN)CC1OC(n2cnc3c(N)ncnc32)C2OC3(CCCCC3)OC12 (stereo not drawn) [Compound 22] | – | – | IC50 ([1]; read-out: AdoMetDC IC50, pre-incubation not stated): > 50 µM; EC50 ([2]; read-out: EC50 (T. b. brucei), 48 h cell viability, triplicate): > 25 µM
11 | CCOc1ncnc2c1ncn2[C@@H]1O[C@H](CN(C)C/C=C\CN)[C@@H](O)[C@H]1O [Compound 28d] | – | – | fold less active against AdoMetDC compared to parent [1]: ~16 fold
12 | CN(C/C=C\CN)C[C@H]1O[C@@H](n2cnc3c(N)ncnc32)[C@H](O)[C@@H]1O [Compound 1, 5'-(((Z)-4-amino-2-butenyl)methylamino)-5'-deoxyadenosine] | – | – | brain-to-blood ratio [3]: 1.7%; cure of mice infected with T. brucei (T. brucei): sterile cure; cure in mouse model of the CNS stage of HAT (CNS stage of HAT): not efficacious; also recorded: neither compound led to a cure

Now from value to molecule, other results behind:

Row | IC50 [1, 4] [µM] | IC50 [1, 5] [µM] | Structure (SMILES) | other results
13 | > 50 | > 50 | CCC(=O)NC/C=C\CN(C)C[C@H]1O[C@@H](n2cnc3c(N)ncnc32)[C@H](OC(C)=O)[C@@H]1OC(C)=O [Compound 6b] | –
14 | > 50 | > 50 | Cc1nc2c(N)ncnc2n1[C@@H]1O[C@H](CN(C)C/C=C\CNC(=O)OC(C)(C)C)[C@H]2OC(C)(C)O[C@H]21 [Compound 10a] | –
15 | > 50 | > 50 | CCCC(=O)NC/C=C\CN(C)C[C@H]1O[C@@H](n2cnc3c(N)ncnc32)[C@H](OC(C)=O)[C@@H]1OC(C)=O [Compound 6c] | –
16 | > 50 | > 50 | Cc1nc2c(N)ncnc2n1[C@@H]1O[C@H](CN(C/C=C\CN)CCO)[C@H]2OC(C)(C)O[C@H]21 [Compound 11d] | –
17 | – | > 50 | Cc1nc2c(N)ncnc2n1[C@@H]1O[C@H](CN(C/C=C\CNC(=O)OC(C)(C)C)C2CC2)[C@H]2OC(C)(C)O[C@H]21 [Compound 10c] | –
18 | > 50 | > 50 | CC(=O)NC/C=C\CN(C)C[C@H]1O[C@@H](n2cnc3c(N)ncnc32)[C@H](OC(C)=O)[C@@H]1OC(C)=O [Compound 6a] | –
19 | > 50 | > 50 | Cc1nc2c(N)ncnc2n1[C@@H]1O[C@H](CN(C/C=C\CN)C2CC2)[C@@H](O)[C@H]1O [Compound 12c] | –
20 | > 50 | > 50 | Cc1nc2c(N)ncnc2n1[C@@H]1O[C@H](CN(C/C=C\CN)C2CC2)[C@H]2OC(C)(C)O[C@H]21 [Compound 11c] | –
21 | > 50 | > 50 | CC1(C)O[C@@H]2[C@H](O1)[C@@H](CN(C/C=C\CN)CCF)O[C@H]2n1cnc2c(N)ncnc21 [Compound 11b] | –
22 | – | > 50 | NC/C=C\CN(CCF)C[C@H]1O[C@@H](n2cnc3c(N)ncnc32)[C@H](O)[C@@H]1O [Compound 12b] | –
